From patent US9963480B2, “Nucleoside phosphoramidate compound and use thereof” (priority 2013, dated 2018)
Like-named read-outs stand apart in the source and are kept apart here.

Tested on: HCV 1b replicon
Assay: Antiviral activity assay in HCV replicon system (Huh7 1b cells, luciferase reporter)
Format: cell-based
Settings: Hepatitis C virus
Description: The cell line Huh7 1b, which was provided by WuXi AppTec Co., Ltd. in Shanghai, contained an HCV 1b replicon with a stable Luciferase (Luc) reporter. It was constructed by cloning HCV nonstructural protein gene, neo (G418 resistance) and luciferase reporter gene into the pBR vector through gene recombination technology. Then the vector carrying the HCV replicon was transfected into Huh7 cells, and the transfected Huh7 cells were screened by G418 resistance. The HCV replicon was stably replicated, and the related protein and luciferase were stably expressed in Huh7 cells. The cells model was used for in-vitro screen of anti-HCV compounds. The anti-HCV activity of the compounds was measured by detecting the level of luciferase expression. See Lohmann V, et al. 1999. Replication of subgenomic hepatitis C virus RNAs in a hepatoma cell line. Science. 285(5424):110-113.
The control drug used in this experimental example was the compound of Example 25 in WO 2008/121634 (PCT/US2008/058183), i.e. (S)-2-{[(2R,3R,4R,5R)-5-(2,4-dioxo-3,4-dihydro-2H-pyrimidin-1-yl)-4-fluoro-3-hydr oxy-4-methyl-tetrahydro-furan-2-ylmethoxy]-phenoxy-phosphorylamino}-propanoic acid isopropyl ester. This compound was prepared according to the method described in J. Org. chem, 2011, 76, 8311-8319, and identified by H-NMR and mass spectrometry.
• 2.1 compound preparation: adding each of the compounds listed in Table 2 to 96-well plates using a POD™ 810 Automation Platform (LabCyte Corporation, USA), with 10 μM of each of the compounds as a starting concentration and in duplicate; serially diluting each of the compounds in 3-fold fashion and formulating 10 concentrations, with the final concentration of DMSO being 0.5%; • 2.2 cells preparation: seeding the Huh71b cells into 96-well plates respectively with a volume of 125 μl and 8×10^3 cells/well, and incubating in a 37° C., 5% CO2 incubator for 72 h; • 2.3 detection of cell activity: adding 30 μl per cell of the CellTiter-Fluor™ Reagent, incubating in a 37° C., 5% CO2 incubator for 1 h, measuring the fluorescence signal values with a fluorometer, and using the obtained data for calculation of cytotoxicities of the compounds; • 2.4 Bright-Glo detection: adding 100 μl per well of the Bright-Glo™ Luciferase Substrate, using a chemiluminescence detection system EnVision™ (PerkinElmer, USA) to detect the fluorescence signal values within 5 minutes, and using the obtained data for calculation of potencies of the compounds. • 2.5 data processing: converting the obtained data to a percentage of cell viability (Viability %) using the following formula:
[formula] • CPD: fluorescence signal value of the well added with the compound • ZPE (Zero percent effect): fluorescence signal value of the control well with zero percent effect. • Processing the raw data to calculate a percentage of inhibition (Inhibition %) using the following formula:
[formula] • CPD: fluorescence signal value of the well added with the compound; • HPE (Hundred percent effect): fluorescence signal value of the control well with hundred percent effect; • ZPE (Zero percent effect): fluorescence signal value of the control well with zero percent effect.
The inhibition percentage was processed by the GraphPad Prism software to obtain the corresponding curves and EC50 values.

[1] = Huh-7, Huh7 1b cells with HCV 1b replicon, Bright-Glo luciferase, 72 h, read-out: EC50

CC(C)OC(=O)[C@H](C)NP(=O)(OC[C@H]1O[C@@H](n2ccc(=O)[nH]c2=O)[C@](C)(F)[C@@H]1O)Oc1ccc(/C=C/c2ccc(F)cc2)cc1 (stereo partly drawn) [Example 19, (2S)-2-(((4-((E)-4-fluorophenylethenylphenyl)-1-yloxy)(((2R,3R,4R,5R)-5-(2,4-dioxo-3,4-dihydropyrimidin-1(2H)-yl)-4-fluoro-3-hydroxy-4-methyltetrahydrofuran-2-yl)methoxy)phosphoryl)amino)propanoic Acid Isopropyl Ester]
EC50 [1]: 303 nM

CC(C)OC(=O)[C@H](C)NP(=O)(OC[C@H]1O[C@@H](n2ccc(=O)[nH]c2=O)[C@](C)(F)[C@@H]1O)Oc1ccc(-c2cccc(Cl)c2)cc1 (stereo partly drawn) [Example 32, (2S)-2-((((3′-chloro-[1,1′-biphenyl]-4-yl)oxy)(((2R,3R,4R,5R)-5-(2,4-dioxo-3,4-dihydropyrimidin-1(2H)-yl)-4-fluoro-3-hydroxy-4-methyltetrahydrofuran-2-yl)methoxy)phosphoryl)amino)propanoic Acid Isopropyl Ester]
EC50 [1]: 68 nM

COC(=O)Cc1coc2c(OP(=O)(N[C@@H](C)C(=O)OC(C)C)OC[C@H]3O[C@@H](n4ccc(=O)[nH]c4=O)[C@](C)(F)[C@@H]3O)cccc12 (stereo partly drawn) [Example 22, (2S)-2-(((3-methoxycarbonylmethyl-benzofuran-7-yloxy)(((2R,3R,4R,5R)-5-(2,4-dioxo-3,4-dihydropyrimidin-1(2H)-yl)-4-fluoro-3-hydroxy-4-methyltetrahydrofuran-2-yl)methoxy)phosphoryl)amino)propanoic Acid Isopropyl Ester]
EC50 [1]: 314 nM

CC(C)OC(=O)[C@H](C)NP(=O)(OC[C@H]1O[C@@H](n2ccc(=O)[nH]c2=O)[C@](C)(F)[C@@H]1O)Oc1ccc(-c2ccc(Cl)cc2)cc1 (stereo partly drawn) [Example 27, (2S)-2-((((4′-chloro-[1,1′-biphenyl]-4-yl)oxy)(((2R,3R,4R,5R)-5-(2,4-dioxo-3,4-dihydropyrimidin-1(2H)-yl)-4-fluoro-3-hydroxy-4-methyltetrahydrofuran-2-yl)methoxy)phosphoryl)amino)propanoic Acid Isopropyl Ester]
EC50 [1]: 98 nM

CC(C)OC(=O)[C@H](C)NP(=O)(OC[C@H]1O[C@@H](n2ccc(=O)[nH]c2=O)[C@](C)(F)[C@@H]1O)Oc1ccc2[nH]ccc2c1 (stereo partly drawn) [Example 20, (2S)-2-(((1H-indol-5-yloxy)(((2R,3R,4R,5R)-5-(2,4-dioxo-3,4-dihydropyrimidin-1(2H)-yl)-4-fluoro-3-hydroxy-4-methyltetrahydrofuran-2-yl)methoxy)phosphoryl)amino)propanoic Acid Isopropyl Ester]
EC50 (Huh-7, 72 h): 3870 nM

Cc1cc2c(F)c(OP(=O)(N[C@@H](C)C(=O)OC(C)C)OC[C@H]3O[C@@H](n4ccc(=O)[nH]c4=O)[C@](C)(F)[C@@H]3O)ccc2[nH]1 (stereo partly drawn) [Example 21, (2S)-2-(((4-fluoro-2-methyl-1H-indol-5-yloxy)(((2R,3R,4R,5R)-5-(2,4-dioxo-3,4-dihydropyrimidin-1(2H)-yl)-4-fluoro-3-hydroxy-4-methyltetrahydrofuran-2-yl)methoxy)phosphoryl)amino)propanoic Acid Isopropyl Ester]
EC50 [1]: 258 nM

CC(C)OC(=O)[C@H](C)NP(=O)(OC[C@H]1O[C@@H](n2ccc(=O)[nH]c2=O)[C@](C)(F)[C@@H]1O)Oc1ccc(C#Cc2ccccc2)cc1 (some centres unmarked) [Example 11]
EC50 [1]: 189 nM

CC(C)OC(=O)[C@H](C)NP(=O)(OC[C@H]1O[C@@H](n2ccc(=O)[nH]c2=O)[C@](C)(F)[C@@H]1O)Oc1ccc(-c2ccc(Cl)cc2F)cc1 (some centres unmarked) [Example 39]
EC50 [1]: 61 nM

Cc1ccc(-c2ccc(OP(=O)(N[C@@H](C)C(=O)OC(C)C)OC[C@H]3O[C@@H](n4ccc(=O)[nH]c4=O)[C@](C)(F)[C@@H]3O)cc2)cc1F (some centres unmarked) [Example 40]
EC50 [1]: 56 nM

CC(C)OC(=O)[C@H](C)NP(=O)(OC[C@H]1O[C@@H](n2ccc(=O)[nH]c2=O)[C@](C)(F)[C@@H]1O)Oc1ccc2oc(-c3ccccc3)cc(=O)c2c1 (some centres unmarked) [Example 23]
EC50 [1]: 4490 nM

CC(C)OC(=O)[C@H](C)NP(=O)(OC[C@H]1O[C@@H](n2ccc(=O)[nH]c2=O)[C@](C)(F)[C@@H]1O)Oc1ccc(-c2cncs2)cc1 (some centres unmarked) [Example 17]
EC50 [1]: 258 nM

CC(C)OC(=O)[C@H](C)NP(=O)(OC[C@H]1O[C@@H](n2ccc(=O)[nH]c2=O)[C@](C)(F)[C@@H]1O)Oc1ccccc1-c1ccccc1 (stereo partly drawn) [Example 3, (2S)-2-((([1,1′-biphenyl]-2-yloxy)(((2R,3R,4R,5R)-5-(2,4-dioxo-3,4-dihydropyrimidin-1(2H)-yl)-4-fluoro-3-hydroxy-4-methyltetrahydrofuran-2-yl)methoxy)phosphoryl)amino)propanoic Acid Isopropyl Ester]
EC50 [1]: 123 nM

CC(C)OC(=O)[C@H](C)NP(=O)(OC[C@H]1O[C@@H](n2ccc(=O)[nH]c2=O)[C@](C)(F)[C@@H]1O)Oc1ccc(-c2cccc(F)c2)cc1 (stereo partly drawn) [Example 31, (2S)-2-((((3′-fluoro-[1,1′-biphenyl]-4-yl)oxy)(((2R,3R,4R,5R)-5-(2,4-dioxo-3,4-dihydropyrimidin-1(2H)-yl)-4-fluoro-3-hydroxy-4-methyltetrahydrofuran-2-yl)methoxy)phosphoryl)amino)propanoic Acid Isopropyl Ester]
EC50 [1]: 102 nM

Cc1cc2c(F)c(O[P@@](=O)(N[C@@H](C)C(=O)OC(C)C)OC[C@H]3O[C@@H](n4ccc(=O)[nH]c4=O)[C@](C)(F)[C@@H]3O)ccc2n1C [Example 43, (2S)-2-(((R)-((4-fluoro-1,2-dimethyl-1H-indol-5-yl)oxy)(((2R,3R,4R,5R)-5-(2,4-dioxo-3,4-dihydropyrimidin-1(2H)-yl)-4-fluoro-3-hydroxy-4-methyltetrahydrofuran-2-yl)methoxy)phosphoryl)amino)propanoic Acid Isopropyl Ester]
EC50 [1]: 69 nM

Cc1cc2c(F)c(O[P@](=O)(N[C@@H](C)C(=O)OC(C)C)OC[C@H]3O[C@@H](n4ccc(=O)[nH]c4=O)[C@](C)(F)[C@@H]3O)ccc2n1C [Example 33, (2S)-2-(((S)-((4-fluoro-1,2-dimethyl-1H-indol-5-yl)oxy)(((2R,3R,4R,5R)-5-(2,4-dioxo-3,4-dihydropyrimidin-1(2H)-yl)-4-fluoro-3-hydroxy-4-methyltetrahydrofuran-2-yl)methoxy)phosphoryl)amino)propanoic Acid Isopropyl Ester]
EC50 [1]: 33 nM

Cc1ccc(-c2ccc(OP(=O)(N[C@@H](C)C(=O)OC(C)C)OC[C@H]3O[C@@H](n4ccc(=O)[nH]c4=O)[C@](C)(F)[C@@H]3O)cc2)cc1 (stereo partly drawn) [Example 42, (2S)-2-((((4′-methyl-[1,1′-biphenyl]-4-yl)oxy)(((2R,3R,4R,5R)-5-(2,4-dioxo-3,4-dihydropyrimidin-1(2H)-yl)-4-fluoro-3-hydroxy-4-methyltetrahydrofuran-2-yl)methoxy)phosphoryl)amino)propanoic Acid Isopropyl Ester]
EC50 [1]: 126 nM

COC(=O)CNP(=O)(OC[C@H]1O[C@@H](n2ccc(=O)[nH]c2=O)[C@](C)(F)[C@@H]1O)Oc1cccc2c1CCCC2 (stereo partly drawn) [Example 14, (2S)-2-(((5,6,7,8-tetrahydronaphthalen-1-yloxy)(((2R,3R,4R,5R)-5-(2,4-dioxo-3,4-dihydropyrimidin-1(2H)-yl)-4-fluoro-3-hydroxy-4-methyltetrahydrofuran-2-yl)methoxy)phosphoryl)amino)acetic Acid Methyl Ester]
EC50 [1]: 223 nM
